From PubChem BioAssay (NCI)
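At the GI50, growth is halved. TGI is the concentration that stops growth completely.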

Tests used:
Test in all cases: NCI anticancer screen, dose series, 384-well format
[1] = test system: SK-MEL-2 melanoma
[2] = test system: KM12 colon
[3] = test system: MOLT-4 leukemia
[4] = test system: IGROV1 ovarian
[5] = test system: CCRF-CEM leukemia
[6] = test system: 786-0 renal
[7] = test system: RXF 393 renal
[8] = test system: NCI/ADR-RES ovarian
[9] = test system: OVCAR-3 ovarian
[10] = test system: EKVX NSCLC
[11] = test system: NCI-H23 lung
[12] = test system: SK-OV-3 ovarian
[13] = test system: MDA-MB-231 breast
[14] = test system: CAKI-1 renal
[15] = test system: UACC-257 melanoma
[16] = test system: NCI-H322M lung
[17] = test system: MALME-3M melanoma
[18] = test system: NCI-H522 lung
[19] = test system: HCT-15 colon
[20] = test system: HCT-116 colon
[21] = test system: HS 578T breast
[22] = test system: NCI-H226 lung
[23] = test system: T-47D breast
[24] = test system: SK-MEL-5 melanoma
[25] = test system: TK-10 renal
[26] = test system: A498 renal
[27] = test system: SNB-75 CNS
[28] = test system: M14 melanoma
[29] = test system: OVCAR-4 ovarian
[30] = test system: K-562 leukemia
[31] = test system: COLO 205 colon
[32] = test system: SW-620 colon
[33] = test system: SF-268 CNS
[34] = test system: U251 glioblastoma
[35] = test system: NCI-H460 NSCLC
[36] = test system: MDA-MB-435 melanoma
[37] = test system: UO-31 renal
[38] = test system: LOX IMVI melanoma
[39] = test system: SR leukemia
[40] = test system: UACC-62 melanoma
[41] = test system: HOP-62 NSCLC
[42] = test system: SN12C renal
[43] = test system: BT-549 breast
[44] = test system: HOP-92 NSCLC
[45] = test system: HCC-2998 colon
[46] = test system: DU-145 prostate
[47] = test system: HT29 colon

## CS(=O)(=O)CCNCc1ccc(-c2ccc3ncnc(Nc4ccc(OCc5cccc(F)c5)c(Cl)c4)c3c2)o1
[1]
  GI50: 1600 nM
  TGI: 2960 nM
[2]
  GI50: 2210 nM
  TGI: 3.72 µM
[3]
  GI50: 1490 nM
  TGI: 2820 nM
[4]
  GI50: 751 nM
  TGI: 2870 nM
[5]
  GI50: 1680 nM
  TGI: 3.05 µM
[6]
  GI50: 1340 nM
  TGI: 2620 nM
[7]
  GI50: 1460 nM
  TGI: 2790 nM
[8]
  GI50: 1560 nM
  TGI: 3.47 µM
[9]
  GI50: 1580 nM
  TGI: 2960 nM
[10]
  GI50: 777 nM
  TGI: 3.13 µM
[11]
  GI50: 2070 nM
  TGI: 4.07 µM
[12]
  GI50: 785 nM
  TGI: 5.17 µM
[13]
  GI50: 1930 nM
  TGI: 3.4 µM
[14]
  GI50: 1460 nM
  TGI: 2970 nM
[15]
  GI50: 1990 nM
  TGI: 3.42 µM
[16]
  GI50: 179 nM
  TGI: 1140 nM
[17]
  GI50: 1830 nM
  TGI: 3.23 µM
[18]
  GI50: 102 nM
  TGI: 1480 nM
[19]
  GI50: 1450 nM
  TGI: 2790 nM
[20]
  GI50: 1850 nM
  TGI: 3.45 µM
[21]
  GI50: 1970 nM
  TGI: 3.48 µM
[22]
  GI50: 2120 nM
  TGI: 4.75 µM
[23]
  GI50: 605 nM
  TGI: 5.69 µM
[24]
  GI50: 1770 nM
  TGI: 3.16 µM
[25]
  GI50: 644 nM
  TGI: 4.5 µM
[26]
  GI50: 1260 nM
  TGI: 2520 nM
[27]
  GI50: 2280 nM
  TGI: 5.28 µM
[28]
  GI50: 1930 nM
  TGI: 3.35 µM
[29]
  GI50: 1720 nM
  TGI: 3.19 µM
[30]
  GI50: 1690 nM
  TGI: 3.07 µM
[31]
  GI50: 3.78 µM
  TGI: 9.05 µM
[32]
  GI50: 1990 nM
  TGI: 3.5 µM
[33]
  GI50: 2630 nM
  TGI: 6.97 µM
[34]
  GI50: 1840 nM
  TGI: 3.35 µM
[35]
  GI50: 1860 nM
  TGI: 3.29 µM
[36]
  GI50: 4.97 µM
  TGI: 9.25 µM
[37]
  GI50: 1090 nM
  TGI: 3.89 µM
[38]
  GI50: 1800 nM
  TGI: 3.21 µM
[39]
  GI50: 2090 nM
  TGI: 3.53 µM
[40]
  GI50: 1950 nM
  TGI: 3.43 µM
[41]
  GI50: 2300 nM
  TGI: 4.95 µM
[42]
  GI50: 2160 nM
  TGI: 7.1 µM
[43]
  GI50: 1650 nM
  TGI: 3.01 µM
[44]
  GI50: 1370 nM
  TGI: 2680 nM
[45]
  GI50: 1810 nM
  TGI: 3.22 µM
[46]
  GI50: 1390 nM
  TGI: 3.38 µM
[47]
  GI50: 1850 nM
  TGI: 3.27 µM
